Like-named read-outs stand apart in the source and are kept apart here.
Experiments:
[1] = monkeys; preclinical; cited from earlier work
[2] = First-in-human trial: pharmacokinetics in plasma and urine; type: in vivo; conditions: for AUC(0-inf) / Cmax / half-life / AUC(0-t): human, plasma, oral, median (range); for half-life: read-out: T1/2 (converted); for AUC(0-t): read-out: AUC24hr
Procedure: Blood and urine samples were collected at prespecified time points for 24 h after initial dose and at days 2–3 (S2) and after multiple doses on days 3–4 (S1) and 22–23 (S3) across dose levels. Predose samples were collected on days 8, 15 and 22. Urine samples were collected during cycle 1.
Descriptive statistics were used to summarise the safety data, including all patients who received at least one dose of OSI-027. All patients who completed the pharmacokinetic sampling were included in the PK analyses, which used descriptive statistics to summarise AUC0–∞, AUC0–t, Cmax, Clast, Tmax, Tlast, %AUC extrapolated, T1/2, clearance (Cl/F) and volume of distribution (Vz/F). Exploratory analysis were planned to correlate pharmacodynamics and pharmacokinetics. Response to treatment was evaluated according to Response Evaluation Criteria in Solid Tumors (RECIST) ([Therasse et al, 2000]).

[3] = 5 mg, Schedule 3, 5 mg, Day 1, N=3
[4] = 5 mg, Schedule 3, 5 mg, Day 22, N=3
[5] = 10 mg, Schedule 1, 10 mg, Day 1, N=6
[6] = 10 mg, Schedule 1, 10 mg, Day 3, N=6
[7] = 10 mg, Schedule 3, 10 mg, Day 1, N=3
[8] = 10 mg, Schedule 3, 10 mg, Day 22, N=3
[9] = 15 mg, Schedule 1, 15 mg, Day 1, N=4
[10] = 15 mg, Schedule 1, 15 mg, Day 3, N=4
[11] = 20 mg, Schedule 1, 20 mg, Day 1, N=4
[12] = 20 mg, Schedule 1, 20 mg, Day 3, N=4
[13] = 20 mg, Schedule 3, 20 mg, Day 1, N=6
[14] = 20 mg, Schedule 3, 20 mg, Day 22, N=5
[15] = 25 mg, Schedule 3, 25 mg, Day 1, N=3
[16] = 25 mg, Schedule 3, 25 mg, Day 22, N=3
[17] = 30 mg, Schedule 1, 30 mg, Day 1, N=3
[18] = 30 mg, Schedule 1, 30 mg, Day 3, N=3
[19] = 35 mg, Schedule 3, 35 mg, Day 1, N=4

Q: For `COc1cccc2cc(-c3nc([C@H]4CC[C@H](C(=O)O)CC4)n4ncnc(N)c34)[nH]c12` [OSI-027], which “maximum tolerated dose (MTD) in toxicology studies” value [1] is on record?
A: 2.5 mg kg^−1 per day

Q: And the accumulation ([2]; after once daily / continuous dosing)?
A: minimal accumulation

Q: What about the AUC(0-inf) [2, 3] of the same molecule?
A: 2140 ng·h/mL

Q: And the Cmax [2, 3]?
A: 236 ng/mL

Q: What about the half-life [2, 3] of the same molecule?
A: 7.89 h

Q: What about the Cmax [2, 4] of the same molecule?
A: 266 ng/mL

Q: And the AUC(0-t) [2, 4]?
A: 2040 ng·h/mL

Q: What about the half-life [2, 4] of the same molecule?
A: 6.85 h

Q: And the AUC(0-inf) [2, 5]?
A: 5130 ng·h/mL

Q: What about the Cmax [2, 5] of the same molecule?
A: 646 ng/mL

Q: And the half-life [2, 5]?
A: 5.98 h

Q: And the Cmax [2, 6]?
A: 602 ng/mL

Q: And the AUC(0-t) [2, 6]?
A: 4860 ng·h/mL

Q: And the half-life [2, 6]?
A: 7.74 h

Q: And the AUC(0-inf) ([2]; 10 mg, Schedule 2, 10 mg, N=4)?
A: 5530 ng·h/mL

Q: And the Cmax ([2]; 10 mg, Schedule 2, 10 mg, N=4)?
A: 705 ng/mL

Q: What about the half-life ([2]; 10 mg, Schedule 2, 10 mg, N=4) of the same molecule?
A: 12.3 h

Q: What about the AUC(0-inf) [2, 7] of the same molecule?
A: 4300 ng·h/mL

Q: What about the Cmax [2, 7] of the same molecule?
A: 547 ng/mL

Q: And the half-life [2, 7]?
A: 7.24 h

Q: And the Cmax [2, 8]?
A: 457 ng/mL

Q: And the AUC(0-t) [2, 8]?
A: 3720 ng·h/mL

Q: And the half-life [2, 8]?
A: 6.54 h

Q: And the AUC(0-inf) [2, 9]?
A: 8460 ng·h/mL

Q: What about the Cmax [2, 9] of the same molecule?
A: 1170 ng/mL

Q: What about the half-life [2, 9] of the same molecule?
A: 7.12 h

Q: What about the Cmax [2, 10] of the same molecule?
A: 1270 ng/mL

Q: And the AUC(0-t) [2, 10]?
A: 9210 ng·h/mL

Q: What about the half-life [2, 10] of the same molecule?
A: 7.69 h

Q: And the AUC(0-inf) ([2]; 15 mg, Schedule 2, 15 mg, N=7)?
A: 25900 ng·h/mL

Q: What about the Cmax ([2]; 15 mg, Schedule 2, 15 mg, N=7) of the same molecule?
A: 894 ng/mL

Q: What about the half-life ([2]; 15 mg, Schedule 2, 15 mg, N=7) of the same molecule?
A: 19.3 h

Q: What about the AUC(0-inf) [2, 11] of the same molecule?
A: 5780 ng·h/mL

Q: And the Cmax [2, 11]?
A: 804 ng/mL

Q: What about the half-life [2, 11] of the same molecule?
A: 5.09 h

Q: And the Cmax [2, 12]?
A: 1350 ng/mL

Q: And the AUC(0-t) [2, 12]?
A: 5850 ng·h/mL

Q: And the half-life [2, 12]?
A: 5.97 h

Q: What about the AUC(0-inf) ([2]; 20 mg, Schedule 2, 20 mg, N=3) of the same molecule?
A: 9840 ng·h/mL

Q: And the Cmax ([2]; 20 mg, Schedule 2, 20 mg, N=3)?
A: 1240 ng/mL

Q: And the half-life ([2]; 20 mg, Schedule 2, 20 mg, N=3)?
A: 7.65 h

Q: And the AUC(0-inf) [2, 13]?
A: 9460 ng·h/mL

Q: And the Cmax [2, 13]?
A: 1300 ng/mL

Q: What about the half-life [2, 13] of the same molecule?
A: 7.03 h

Q: And the Cmax [2, 14]?
A: 1540 ng/mL

Q: What about the AUC(0-t) [2, 14] of the same molecule?
A: 13700 ng·h/mL

Q: What about the half-life [2, 14] of the same molecule?
A: 9.67 h

Q: And the AUC(0-inf) [2, 15]?
A: 25100 ng·h/mL

Q: What about the Cmax [2, 15] of the same molecule?
A: 1640 ng/mL

Q: And the half-life [2, 15]?
A: 11.1 h

Q: And the Cmax [2, 16]?
A: 1790 ng/mL

Q: What about the AUC(0-t) [2, 16] of the same molecule?
A: 15200 ng·h/mL

Q: What about the half-life [2, 16] of the same molecule?
A: 15 h

Q: What about the AUC(0-inf) [2, 17] of the same molecule?
A: 45100 ng·h/mL

Q: What about the Cmax [2, 17] of the same molecule?
A: 3620 ng/mL

Q: And the half-life [2, 17]?
A: 11.3 h

Q: And the Cmax [2, 18]?
A: 2120 ng/mL

Q: What about the AUC(0-t) [2, 18] of the same molecule?
A: 37800 ng·h/mL

Q: What about the half-life [2, 18] of the same molecule?
A: 10 h

Q: What about the AUC(0-inf) [2, 19] of the same molecule?
A: 20200 ng·h/mL

Q: And the Cmax [2, 19]?
A: 1590 ng/mL

Q: What about the half-life [2, 19] of the same molecule?
A: 7.24 h

Q: And the Cmax ([2]; 35 mg, Schedule 3, 35 mg, Day 22, N=4)?
A: 2300 ng/mL
